The term Ki denotes the equilibrium dissociation constant of an inhibitor or competing ligand from its target.

Read-outs that look alike come from different tables or passages of the source.

Experiment [1] deals with T1, human kappa opioid receptor (hKOR) (Homo sapiens, UniProt P41145).
T1 construct: expressed in transfected cells; host or cells: CHO cells
In words: Kappa radioligand binding assay ([3H]diprenorphine, CHO cell membranes). The settings on record: for Selectivity hMOR/hKOR: selectivity ratio calculated by dividing the hMOR Ki by the hKOR Ki. The protocol: (§1) Kappa and Mu Radioligand Binding Assay:
(§2) Binding assays on membranes from CHO cells expressing human kappa or mu opioid receptors were performed according to standard procedures. Frozen cell paste was homogenized in 50 mM Tris HCl buffer (pH 7.4 @ 4 degrees C.) containing 2.0 mM MgCl2 using a Polytron and spun in a centrifuge at 40,000 g for ten minutes. The final pellet was resuspended in assay buffer (50 mM Tris HCl buffer, pH 7.4, containing 1 mM EDTA, 5 mM MgCl2). Incubations were initiated by the addition of membranes to 96-well plates containing test drugs and [^3H]diprenorphine (0.6 nM final concentration for kappa opioid receptor and 0.5 nM final concentration for mu) in a final volume of 250 μl. Non-specific binding was determined by radioligand binding in the presence of a saturating concentration of naltrexone (10 μM). After a one hour incubation period at room temperature, assay samples were rapidly filtered through PEI coated, GF/B fired Unifilter plates (PerkinElmer) and rinsed with ice-cold 50 mM Tris buffer (pH 7.4). Membrane bound [^3H]diprenorphine levels were determined by liquid scintillation counting of the filterplates in Ecolume scintillation fluid. The IC50 value (concentration at which 50% inhibition of specific binding occurs) was calculated using a logistic 4 parameter fit model of the concentration-response data. Ki values were calculated according to the Cheng Prusoff equation, Ki=IC50/(1+(L/Kd)), where L is the concentration of the radioligand used in the experiment and the Kd value is the dissociation constant for the radioligand (determined previously by saturation analysis).

In experiment [2] the target is T2, human mu opioid receptor (hMOR) (Homo sapiens, UniProt P35372).
T2 construct: expressed in transfected cells; host or cells: CHO cells
T2 sequence (P35372 whole entry): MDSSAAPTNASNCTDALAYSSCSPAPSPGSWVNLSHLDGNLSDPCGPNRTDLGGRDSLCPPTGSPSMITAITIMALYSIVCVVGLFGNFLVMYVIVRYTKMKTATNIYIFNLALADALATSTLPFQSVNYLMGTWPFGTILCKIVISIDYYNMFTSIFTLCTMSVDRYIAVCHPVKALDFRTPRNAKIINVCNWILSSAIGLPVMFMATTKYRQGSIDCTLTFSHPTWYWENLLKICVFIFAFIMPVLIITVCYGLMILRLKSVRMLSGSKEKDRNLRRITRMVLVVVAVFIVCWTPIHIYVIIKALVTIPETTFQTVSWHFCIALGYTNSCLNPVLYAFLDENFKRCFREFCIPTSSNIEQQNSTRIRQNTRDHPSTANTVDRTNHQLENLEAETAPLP
Briefly: Mu radioligand binding assay ([3H]diprenorphine, CHO cell membranes). On the procedure:
as §1
as §2, with “The IC50 value (concentration at which 50% inhibition of specific binding occurs) was calculated using a logistic 4 parameter fit model of the concentration-response data.” left out

Setting [3] is: Table 19, geometric mean of 2-6 determinations unless otherwise indicated (Example 3: >=7), read-out: hKOR binding assay Ki.
The mark [4] stands for this setting: Table 19, geometric mean of 2-6 determinations unless otherwise indicated (Example 3: >=7), read-out: hMOR binding assay Ki.
The mark [5] stands for this setting: radioligand binding, [3H]diprenorphine, read-out: hKOR Ki.
The mark [6] stands for this setting: radioligand binding, [3H]diprenorphine, read-out: hMOR Ki.
[7] abbreviates: Table 20, radioligand binding, read-out: hKOR binding assay Ki.
The mark [8] stands for this setting: Table 20, radioligand binding, read-out: hMOR binding assay Ki.

T1 sequence (P41145 whole entry): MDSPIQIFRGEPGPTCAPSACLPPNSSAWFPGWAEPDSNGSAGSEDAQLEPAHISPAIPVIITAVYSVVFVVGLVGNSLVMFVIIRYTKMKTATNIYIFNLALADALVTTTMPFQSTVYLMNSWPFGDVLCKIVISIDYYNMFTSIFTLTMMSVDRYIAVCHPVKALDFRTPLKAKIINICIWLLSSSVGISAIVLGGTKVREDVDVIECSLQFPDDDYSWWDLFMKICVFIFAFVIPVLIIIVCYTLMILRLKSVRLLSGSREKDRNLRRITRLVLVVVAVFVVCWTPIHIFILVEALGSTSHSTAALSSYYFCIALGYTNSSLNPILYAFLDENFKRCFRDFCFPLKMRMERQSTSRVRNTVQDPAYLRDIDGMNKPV

Turning to `Cc1nn(C)cc1C1CCCN1Cc1ccc(Oc2ccc(C(N)=O)c(O)c2)cc1` (racemic) [Example 16, (+/−)-4-(4-{[2-(1,3-Dimethyl-1H-pyrazol-4-yl)pyrrolidin-1-yl]methyl}phenoxy)-2-hydroxybenzamide], the Ki in experiment [1] (setting [3]) was determined as 9.67 nM; in experiment [2] (setting [4]), 159 nM.
Taken in the same sequence, the figures for `Cc1nn(C)cc1C1CCCN1Cc1ccc(Oc2ccc(C(N)=O)c(O)c2)cc1` (single isomer, unassigned; (-)) [Example 18, (−)-4-(4-{[2-(1,3-Dimethyl-1H-pyrazol-4-yl)pyrrolidin-1-yl]methyl}phenoxy)-2-hydroxybenzamide] were 1.76 nM and 63.6 nM.
Taken in the same sequence, the figures for `Cn1ccc([C@@H]2CCCN2Cc2ccc(Oc3ccc(C(N)=O)cc3F)cc2)n1` [Example 19, 3-fluoro-4-(4-{[(2S)-2-(1-methyl-1H-pyrazol-3-yl)pyrrolidin-1-yl]methyl}phenoxy)benzamide] were 0.999 nM and 13.5 nM.
The corresponding values for `Cc1cc([C@@H]2CCCN2Cc2ccc(Oc3ccc(C(N)=O)c(O)c3)cc2)n(C)n1` [Example 27, 4-(4-{[(2S)-2-(1,3-dimethyl-1H-pyrazol-5-yl)pyrrolidin-1-yl]methyl}phenoxy)-2-hydroxybenzamide] are 2.07 nM and 121 nM.
On to `COc1nn(C)cc1C1CCCN1Cc1ccc(Oc2ccc(C(N)=O)cc2)c(F)c1` (single isomer, unassigned) [enantiomer of Example 32, 4-(2-fluoro-4-{[2-(3-methoxy-1-methyl-1H-pyrazol-4-yl)pyrrolidin-1-yl]methyl}phenoxy)benzamide], for which the inhibition constant (Ki) is 0.629 nM in experiment [1] (setting [5]) and 13.7 nM in experiment [2] (setting [6]).
For the compound `COc1cc(C2CCCN2Cc2ccc(Oc3ccc(C(N)=O)cc3)cc2)n(C)n1` (single isomer, unassigned) [enantiomer of Example 46, 4-(4-{[2-(3-methoxy-1-methyl-1H-pyrazol-5-yl)pyrrolidin-1-yl]methyl}phenoxy)benzamide], the inhibitory constant (Ki) in experiment [1] (setting [5]) was 111 nM; in experiment [2] (setting [6]), 120 nM.
The corresponding values for `Cc1nn(C)nc1C1CCCN1Cc1ccc(Oc2ccc(C(N)=O)cc2)cc1` (single isomer, unassigned) [enantiomer of Example 38, 4-(4-{[2-(2,5-dimethyl-2H-1,2,3-triazol-4-yl)pyrrolidin-1-yl]methyl}phenoxy)benzamide] are greater than 119 nM and 252 nM.
Taken in the same sequence, the figures for `Cc1nn(C)nc1C1CCCN1Cc1ccc(Oc2ccc(C(N)=O)cc2)c(F)c1` (single isomer, unassigned) [enantiomer of Example 39, 4-(4-{[2-(2,5-dimethyl-2H-1,2,3-triazol-4-yl)pyrrolidin-1-yl]methyl}-2-fluorophenoxy)benzamide] were 74.5 nM and 132 nM.
For the compound `Cc1nn(C)nc1C1CCCN1Cc1ccc(Oc2ccc(C(N)=O)cc2)cc1` (single isomer, unassigned) [Example 38, 4-(4-{[2-(2,5-dimethyl-2H-1,2,3-triazol-4-yl)pyrrolidin-1-yl]methyl}phenoxy)benzamide], the “selectivity for KOR over MOR, in words” value in experiment [1] was “more selective than the phenyl examples, Comparators A and B”. Also, the Ki in experiment [1] (setting [3]) amounted to 0.688 nM; in experiment [1] (setting [7]), 0.7 nM; in experiment [2] (setting [4]), 116 nM; in experiment [2] (setting [8]) it was 116 nM. Moreover, in experiment [1], the “Selectivity hMOR/hKOR” value is listed as 168.
`Cc1c(C2CCCN2Cc2ccc(Oc3ccc(C(N)=O)cc3)cc2)cnn1C` (racemic) [Example 36]: the Ki in experiment [1] (setting [3]) is 8.53 nM; in experiment [2] (setting [4]), 20.9 nM.
With `COc1nn(C)cc1C1COCCN1Cc1ccc(Oc2ccc(C(N)=O)cc2)c(F)c1` (single isomer, unassigned) [Example 22, 4-(2-fluoro-4-{[3-(3-methoxy-1-methyl-1H-pyrazol-4-yl)morpholin-4-yl]methyl}phenoxy)benzamide], the results for the Ki in experiment [1] (setting [3]) and in experiment [2] (setting [4]) were 4.52 nM and 95.1 nM, respectively.
Taken in the same sequence, the figures for `COc1nn(C)cc1C1CCCCN1Cc1ccc(Oc2ccc(C(N)=O)cc2)cc1` (single isomer, unassigned) [Example 21, 4-(4-{[2-(3-methoxy-1-methyl-1H-pyrazol-4-yl)piperidin-1-yl]methyl}phenoxy)benzamide] were 0.567 nM and 14.6 nM.
Taken in the same sequence, the figures for `COc1nn(C)cc1C1CCCN1Cc1ccc(Oc2ccc(C(N)=O)cc2F)cc1` (single isomer, unassigned; (+)) [Example 9, (+)-3-Fluoro-4-(4-{[2-(3-methoxy-1-methyl-1H-pyrazol-4-yl)pyrrolidin-1-yl]methyl}phenoxy)benzamide] were 22.5 nM and greater than 352 nM.
The corresponding values for `COc1nn(C)cc1C1CC(F)CN1Cc1ccc(Oc2ccc(C(N)=O)cc2)cc1` (single isomer, unassigned) [Example 24, 4-(4-{[4-fluoro-2-(3-methoxy-1-methyl-1H-pyrazol-4-yl)pyrrolidin-1-yl]methyl}phenoxy)benzamide] are 2.21 nM and 252 nM.
For the compound `Cc1nn(C)c(C)c1C1CCCN1Cc1ccc(Oc2ccc(C(N)=O)cc2F)cc1` (racemic) [Example 37], the “selectivity for KOR over MOR (hMOR Ki divided by hKOR Ki)” value in experiment [1] is listed as 0.9 fold. In addition, the inhibition constant (Ki) in experiment [1] (setting [3]) came out at 13.3 nM; in experiment [1] (setting [7]), 13.3 nM; in experiment [2] (setting [4]), 12.5 nM; in experiment [2] (setting [8]), 12.5 nM. Moreover, the “Selectivity hMOR/hKOR” value in experiment [1] is listed as 0.9.
As to `COc1nn(C)cc1C1COCCN1Cc1ccc(Oc2ccc(C(N)=O)cc2F)cc1` (single isomer, unassigned) [Example 20, 3-fluoro-4-(4-{[3-(3-methoxy-1-methyl-1H-pyrazol-4-yl)morpholin-4-yl]methyl}phenoxy)benzamide], the Ki in experiment [1] (setting [3]) was 5.86 nM; in experiment [2] (setting [4]), 165 nM.
The corresponding values for `Cc1nn(C)cc1C1CC(F)CN1Cc1ccc(Oc2ccc(C(N)=O)cc2)cc1` (single isomer, unassigned) [Example 25, 4-(4-{[2-(1,3-dimethyl-1H-pyrazol-4-yl)-4-fluoropyrrolidin-1-yl]methyl}phenoxy) benzamide] are 2.7 nM and 391 nM.
Take `COc1nn(C)cc1C1COCCN1Cc1ccc(Oc2ccc(C(N)=O)cc2)cc1` (single isomer, unassigned) [enantiomer of Example 23, 4-(4-{[3-(3-methoxy-1-methyl-1H-pyrazol-4-yl)morpholin-4-yl]methyl}phenoxy)benzamide]: the figures for the Ki in experiment [1] (setting [5]) and in experiment [2] (setting [6]) were 223 nM and greater than 564 nM, respectively.
On to `COc1nn(C)cc1C1COCCN1Cc1ccc(Oc2ccc(C(N)=O)cc2)cc1` (single isomer, unassigned) [Example 23, 4-(4-{[3-(3-methoxy-1-methyl-1H-pyrazol-4-yl)morpholin-4-yl]methyl}phenoxy)benzamide], for which the Ki stood at 3.22 nM in experiment [1] (setting [3]) and 73.3 nM in experiment [2] (setting [4]).
For `COc1n[nH]cc1C1CCCN1Cc1ccc(Oc2ccc(C(N)=O)cc2)cc1` (single isomer, unassigned; (-)) [Example 14, (−)-4-(4-{[2-(3-Methoxy-1H-pyrazol-4-yl)pyrrolidin-1-yl]methyl}phenoxy)benzamide], the figures for the inhibition constant (Ki) in experiment [1] (setting [3]) and in experiment [2] (setting [4]) were 6.08 nM and 31.3 nM, respectively.
The corresponding values for `Cc1nn(C)cc1C1CCCN1Cc1ccc(Oc2ccc(C(N)=O)cc2)c(F)c1` (racemic) [Example 1, (+/−)-4-(4-{[2-(1,3-Dimethyl-1H-pyrazol-4-yl)pyrrolidin-1-yl]methyl}-2-fluorophenoxy) benzamide] are 0.871 nM and 20.2 nM.
The corresponding values for `Cc1nn(C)nc1C1CCCN1Cc1ccc(Oc2ccc(C(N)=O)cc2)c(F)c1` (single isomer, unassigned) [Example 39, 4-(4-{[2-(2,5-dimethyl-2H-1,2,3-triazol-4-yl)pyrrolidin-1-yl]methyl}-2-fluorophenoxy)benzamide] are 0.367 nM and 40.9 nM.

(Values after patent US10316021B2, “Heteroarylphenoxy benzamide kappa opioid ligands” (Pfizer Inc., priority 2016, dated 2019).)
